According to the supplement of paper PMC10307832:

What was measured:
Experiment in all cases: relative viability (nuclei count vs DMSO), 5 days (fraction); higher = more cells survive
[1] = compound: C1=CC2=C(C=C(C(=C2N=C1)O)N=NC3=CC4=C(C=C3)C=C(C=C4)S(=O)(=O)O)S(=O)(=O)O + C[C@]1(O)C[C@@H](c2nc(-c3ccc4ccc(-c5ccccc5)nc4c3)c3c(N)nccn32)C1 [Linsitinib] (partner 1 µM)
Method in brief: (§1)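 Medians of duplicate plates are given as relative viability. That measure is the nuclei count in treated wells divided by the count in vehicle wells. Counts were taken on 4× images of lung cancer cell lines in 1536-well plates, 5 days after pin-tool dosing the day after seeding with one drug alone or a fixed anchor-drug dose plus five library-drug doses (not always all listed) in √10 steps.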

[2] = compound: C1=CC2=C(C=C(C(=C2N=C1)O)N=NC3=CC4=C(C=C3)C=C(C=C4)S(=O)(=O)O)S(=O)(=O)O + COc1cc2c(Oc3ccc(NC(=O)C4(C(=O)Nc5ccc(F)cc5)CC4)cc3F)ccnc2cc1OCCCN1CCOCC1 [Foretinib] (partner 0.25 µM)
Method in brief: as §1

[3] = compound: C1=CC2=C(C=C(C(=C2N=C1)O)N=NC3=CC4=C(C=C3)C=C(C=C4)S(=O)(=O)O)S(=O)(=O)O + C[C@@H](Oc1cc(-c2cnn(C3CCNCC3)c2)cnc1N)c1c(Cl)ccc(F)c1Cl [Crizotinib] (partner 1 µM)
Method in brief: as §1

[4] = compound: O=C(NC1CCNCC1)c1n[nH]cc1NC(=O)c1c(Cl)cccc1Cl [AT-7519] + CS(=O)(=O)N1CCN(Cc2cc3nc(-c4cccc5[nH]ncc45)nc(N4CCOCC4)c3s2)CC1 [Pictilisib] (partner 1 µM)
Method in brief: as §1

NCI-H1651
relative viability ([1]; first compound 0.08 µM): 1.01
relative viability ([1]; first compound 0.253 µM): 0.966
relative viability ([1]; first compound 0.8 µM): 1.06
relative viability ([1]; first compound 2.53 µM): 0.922
relative viability ([1]; first compound 8 µM): 0.925
relative viability ([2]; first compound 0.08 µM): 0.923
relative viability ([2]; first compound 0.253 µM): 0.727
relative viability ([2]; first compound 0.8 µM): 0.864
relative viability ([2]; first compound 2.53 µM): 0.857
relative viability ([2]; first compound 8 µM): 0.623
relative viability ([3]; first compound 0.08 µM): 0.968
relative viability ([3]; first compound 0.253 µM): 0.834
relative viability ([3]; first compound 0.8 µM): 0.837
relative viability ([3]; first compound 2.53 µM): 0.874
relative viability ([3]; first compound 8 µM): 0.729
relative viability ([4]; first compound 0.01 µM): 0.59
relative viability ([4]; first compound 0.03162 µM): 0.478
relative viability ([4]; first compound 0.3162 µM): 0.397
relative viability ([4]; first compound 1 µM): 0.41

NCI-H441
relative viability ([1]; first compound 0.08 µM): 0.51
relative viability ([1]; first compound 0.253 µM): 0.527
relative viability ([1]; first compound 0.8 µM): 0.458
relative viability ([1]; first compound 2.53 µM): 0.551
relative viability ([1]; first compound 8 µM): 0.354
relative viability ([2]; first compound 0.08 µM): 1.11
relative viability ([2]; first compound 0.253 µM): 1.06
relative viability ([2]; first compound 0.8 µM): 1.04
relative viability ([2]; first compound 2.53 µM): 1.07
relative viability ([2]; first compound 8 µM): 1.05
relative viability ([3]; first compound 0.08 µM): 0.762
relative viability ([3]; first compound 0.253 µM): 0.672
relative viability ([3]; first compound 0.8 µM): 0.631
relative viability ([3]; first compound 2.53 µM): 0.714
relative viability ([3]; first compound 8 µM): 0.601
relative viability ([4]; first compound 0.01 µM): 0.448
relative viability ([4]; first compound 0.03162 µM): 0.452
relative viability ([4]; first compound 0.3162 µM): 0.468
relative viability ([4]; first compound 1 µM): 0.161

LCLC-103H
relative viability ([1]; first compound 0.08 µM): 1.2
relative viability ([1]; first compound 0.253 µM): 1.04
relative viability ([1]; first compound 0.8 µM): 1
relative viability ([1]; first compound 2.53 µM): 1.15
relative viability ([1]; first compound 8 µM): 1.09
relative viability ([2]; first compound 0.08 µM): 0.87
relative viability ([2]; first compound 0.253 µM): 0.852
relative viability ([2]; first compound 0.8 µM): 0.684
relative viability ([2]; first compound 2.53 µM): 0.749
relative viability ([2]; first compound 8 µM): 0.747
relative viability ([3]; first compound 0.08 µM): 1.16
relative viability ([3]; first compound 0.253 µM): 1.02
relative viability ([3]; first compound 0.8 µM): 0.978
relative viability ([3]; first compound 2.53 µM): 1.07
relative viability ([3]; first compound 8 µM): 1.06
relative viability ([4]; first compound 0.01 µM): 0.624
relative viability ([4]; first compound 0.03162 µM): 0.517
relative viability ([4]; first compound 0.3162 µM): 0.488
relative viability ([4]; first compound 1 µM): 0.557

LCLC-97TM1
relative viability ([1]; first compound 0.253 µM): 0.194
relative viability ([1]; first compound 2.53 µM): 0.196
relative viability ([1]; first compound 8 µM): 0.18
relative viability ([2]; first compound 0.08 µM): 0.938
relative viability ([2]; first compound 0.253 µM): 0.932
relative viability ([2]; first compound 0.8 µM): 0.865
relative viability ([2]; first compound 2.53 µM): 0.93
relative viability ([2]; first compound 8 µM): 0.986
relative viability ([3]; first compound 0.253 µM): 0.35
relative viability ([3]; first compound 2.53 µM): 0.424
relative viability ([3]; first compound 8 µM): 0.325
relative viability ([4]; first compound 0.01 µM): 0.196
relative viability ([4]; first compound 0.03162 µM): 0.176
relative viability ([4]; first compound 0.3162 µM): 0.211
relative viability ([4]; first compound 1 µM): 0.152

NCI-H727
relative viability ([1]; first compound 0.08 µM): 0.223
relative viability ([1]; first compound 0.253 µM): 0.287
relative viability ([1]; first compound 0.8 µM): 0.371
relative viability ([1]; first compound 2.53 µM): 0.32
relative viability ([1]; first compound 8 µM): 0.269
relative viability ([2]; first compound 0.08 µM): 0.939
relative viability ([2]; first compound 0.253 µM): 0.759
relative viability ([2]; first compound 0.8 µM): 0.835
relative viability ([2]; first compound 2.53 µM): 1.03
relative viability ([2]; first compound 8 µM): 0.774
relative viability ([3]; first compound 0.08 µM): 1.17
relative viability ([3]; first compound 0.253 µM): 0.76
relative viability ([3]; first compound 0.8 µM): 0.798
relative viability ([3]; first compound 2.53 µM): 0.936
relative viability ([3]; first compound 8 µM): 0.772
relative viability ([4]; first compound 0.01 µM): 0.354
relative viability ([4]; first compound 0.03162 µM): 0.263
relative viability ([4]; first compound 0.3162 µM): 0.197
relative viability ([4]; first compound 1 µM): 0.204

NCI-H1355
relative viability ([1]; first compound 0.08 µM): 0.951
relative viability ([1]; first compound 0.253 µM): 0.79
relative viability ([1]; first compound 0.8 µM): 0.839
relative viability ([1]; first compound 2.53 µM): 0.863
relative viability ([1]; first compound 8 µM): 0.817
relative viability ([2]; first compound 0.08 µM): 1.1
relative viability ([2]; first compound 0.253 µM): 0.988
relative viability ([2]; first compound 0.8 µM): 0.92
relative viability ([2]; first compound 2.53 µM): 1.03
relative viability ([2]; first compound 8 µM): 0.996
relative viability ([3]; first compound 0.08 µM): 1.16
relative viability ([3]; first compound 0.253 µM): 1.04
relative viability ([3]; first compound 0.8 µM): 0.986
relative viability ([3]; first compound 2.53 µM): 1.17
relative viability ([3]; first compound 8 µM): 1.14
relative viability ([4]; first compound 0.01 µM): 0.462
relative viability ([4]; first compound 0.03162 µM): 0.388
relative viability ([4]; first compound 0.3162 µM): 0.475
relative viability ([4]; first compound 1 µM): 0.35

HOP-62
relative viability ([1]; first compound 0.08 µM): 0.992
relative viability ([1]; first compound 0.253 µM): 0.893
relative viability ([1]; first compound 0.8 µM): 1.01
relative viability ([1]; first compound 2.53 µM): 1
relative viability ([1]; first compound 8 µM): 0.926
relative viability ([2]; first compound 0.08 µM): 1.23
relative viability ([2]; first compound 0.253 µM): 1.03
relative viability ([2]; first compound 0.8 µM): 1.13
relative viability ([2]; first compound 2.53 µM): 1.15
relative viability ([2]; first compound 8 µM): 1.04
relative viability ([3]; first compound 0.08 µM): 1.14
relative viability ([3]; first compound 0.253 µM): 0.725
relative viability ([3]; first compound 0.8 µM): 0.701
relative viability ([3]; first compound 2.53 µM): 1.09
relative viability ([3]; first compound 8 µM): 1.02
relative viability ([4]; first compound 0.01 µM): 0.817
relative viability ([4]; first compound 0.03162 µM): 0.742
relative viability ([4]; first compound 0.3162 µM): 0.486
relative viability ([4]; first compound 1 µM): 0.293

NCI-H2085
relative viability ([1]; first compound 0.08 µM): 1.06
relative viability ([1]; first compound 0.253 µM): 0.927
relative viability ([1]; first compound 0.8 µM): 0.978
relative viability ([1]; first compound 2.53 µM): 0.821
relative viability ([1]; first compound 8 µM): 0.892
relative viability ([2]; first compound 0.08 µM): 1.08
relative viability ([2]; first compound 0.253 µM): 0.886
relative viability ([2]; first compound 0.8 µM): 0.894
relative viability ([2]; first compound 2.53 µM): 0.963
relative viability ([2]; first compound 8 µM): 0.634
relative viability ([3]; first compound 0.08 µM): 0.956
relative viability ([3]; first compound 0.253 µM): 0.891
relative viability ([3]; first compound 0.8 µM): 0.855
relative viability ([3]; first compound 2.53 µM): 0.85
relative viability ([3]; first compound 8 µM): 0.725
relative viability ([4]; first compound 0.01 µM): 0.44
relative viability ([4]; first compound 0.03162 µM): 0.506
relative viability ([4]; first compound 0.3162 µM): 0.553
relative viability ([4]; first compound 1 µM): 0.382
